Measured values taken from patent US6232294A, “Neuro-function regulatory agent” (Kabushiki Kaisha Hayashibara Seibutsu Kagaku Kenkyujo, priority 1997, dated 2001).

Legend:
Acute toxicity test = details: dose up to about 16 g per kg mouse (maximum challenged), intraperitoneal or oral, observed for a week
Description: An adequate amount of "TREHAOSE®" , a crystalline trehalose powder commercialized by Hayashibara Shoji, Inc., Okayama, Japan, was dissolved in physiological saline containing 5 w/w % gum arabic, and the solution was sterilized in usual manner and intraperitoneally injected to ddy-mice, 20-25 g weight, in a group of 10 mice, or orally administered to the mice by using a stomach sonde. […] In parallel similar experiments were conducted using as glycosyl vitamin P "αG HESPERIDIN PA" with a total hesperidin content of 74-78%, d.s.b., a glycosyl hesperidin power commercialized by Hayashibara Shoji, Inc., Okayama, Japan, and "αG RUTIN PS" with a total rutin content of 80-82%, d.s.b., a glycosyl rutin powder commercialized by Hayashibara Shoji, Inc., Okayama, Japan.

[1] = Clinical test in volunteers with chronic fatigue syndrome or slight depression; format: in vivo, human; details: experiment conducted similarly with vitamin P
Description: A medical technologist conducted the clinical experiment and 24 hours after the final administration asked the therapeutic effect and the side effects of the volunteers, and also asked the therapeutic effect and side effects of the volunteers on the basis of the relief of feeling of fatigue, malaise, loss of appetite, and insomnia, which were accompanied by the diseases. The therapeutic effect was evaluated based on four ranks; "very effective", "effective", "unchanged",and "worsened". The effectivity was expressed by a percentage of the number of volunteers, who answered "very effective" and "effective", to the total number of volunteers.

| Compound | Mortality (Acute toxicity test) | Effect as compared with control (in words) [1] |
| --- | --- | --- |
| OC[C@H]1O[C@H](O[C@H]2O[C@H](CO)[C@@H](O)[C@H](O)[C@H]2O)[C@H](O)[C@@H](O)[C@@H]1O [TREHAOSE®, α,α-trehalose] | no mouse died | – |
| vitamin P | – | no significant effect was found as compared with control |
